Test system: McpC ligand-binding domain (Salmonella Typhimurium SL1344)
Test: protein melting temperature (Tm) in presence of compound (degrees C); higher = more thermal stabilisation (possible ligand binding)
Conditions: compound stock concentration: 10-20 mM, 2 uL in 10 uL reaction

protein melting temperature (Biolog plate: PM02A)	protein melting temperature (Biolog plate: PM01)	protein melting temperature (Biolog plate: PM03B)	protein melting temperature (Biolog plate: PM05)	protein melting temperature (Biolog plate: PM04A)	SMILES
44.4	–	–	–	–	OC[C@@H]1OC(O)[C@@H](O)[C@H](O)[C@H]1O (stereo partly drawn) [L-Glucose]
–	44.2	44.8	44.2	–	N[C@@H](CCC(=O)O)C(=O)O [L-Glutamic acid]
–	44	45.1	44.9	–	NC(=O)CC[C@H](N)C(=O)O [L-Glutamine]
44.7	–	44.8	44.6	–	N[C@@H](Cc1c[nH]cn1)C(=O)O [L-Histidine]
44.7	–	44.8	–	–	N[C@@H](CCO)C(=O)O [L-Homoserine]
44.3	–	44.8	44.7	–	CC[C@H](C)[C@H](N)C(=O)O [L-Isoleucine]
44.3	–	44.8	44.6	–	CC(C)C[C@H](N)C(=O)O [L-Leucine]
–	44.7	–	–	–	O=C[C@H](O)[C@H](O)[C@@H](O)CO [L-Lyxose]
–	44.3	–	–	–	O=C(O)C[C@H](O)C(=O)O [L-Malic acid]
–	–	–	–	43.9	CS(=O)(=O)CC[C@H](N)C(=O)O [L-Methionine Sulfone]
–	–	–	–	43.6	C[S+]([O-])CC[C@H](N)C(=O)O (stereo partly drawn) [L-Methionine Sulfoxide]
43.5	–	44.7	44.4	43.9	CSCC[C@H](N)C(=O)O [L-Methionine]
44.4	–	44.4	44.7	–	NCCC[C@H](N)C(=O)O [L-Ornithine]
44.5	–	44.8	43.8	–	N[C@@H](Cc1ccccc1)C(=O)O [L-Phenylalanine]
–	44.3	45.1	44.2	–	O=C(O)[C@@H]1CCCN1 [L-Proline]
–	44	44.8	43.8	–	C[C@@H](O)[C@H](N)C(=O)O [L-Threonine]
–	–	44.4	44	–	N[C@@H](Cc1c[nH]c2ccccc12)C(=O)O [L-Tryptophan]
–	–	44.8	43.9	–	N[C@@H](Cc1ccc(O)cc1)C(=O)O [L-Tyrosine]
44.5	–	45	43.5	–	CC(C)[C@H](N)C(=O)O [L-Valine]
44.5	–	–	–	–	OC[C@@H](O)[C@@H](O[C@H]1O[C@H](CO)[C@@H](O)[C@H](O)[C@H]1O)[C@H](O)[C@@H](O)CO [Maltitol]
–	44	–	–	–	OC[C@H]1O[C@H](O[C@H]2[C@H](O)[C@@H](O)[C@@H](O[C@H]3[C@H](O)[C@@H](O)[C@@H](O)O[C@@H]3CO)O[C@@H]2CO)[C@H](O)[C@@H](O)[C@@H]1O [Maltotriose]
44.8	–	–	–	–	OC[C@H]1O[C@@H](O[C@H]2[C@H](O)[C@@H](O)[C@H](O[C@H]3[C@H](O)[C@H](O)[C@H](O[C@@H]4[C@H](O)[C@H](O)[C@H](O)O[C@@H]4CO)O[C@@H]3CO)O[C@@H]2CO)[C@@H](O)[C@@H](O)[C@@H]1O [Mannan]
44.7	–	–	–	–	O=C(O)[C@H](O)[C@@H](O)[C@H](O)[C@H](O)CO[C@H]1O[C@H](CO)[C@H](O)[C@H](O)[C@H]1O [Melibionic acid]
–	–	–	42.6	–	CC1=CC(=O)c2ccccc2C1=O [Menadione]
–	–	44.9	–	–	CSCC[C@H](N)C(=O)N[C@@H](C)C(=O)O [Met-Ala]
–	–	–	–	44.4	CS(=O)(=O)O [Methane Sulfonic acid]
–	–	–	–	44	O=P(O)(O)CP(=O)(O)O [Methylene Diphosphonic acid]
–	44.9	–	–	–	COC(=O)C(C)=O [Methylpyruvate]

SMILES	protein melting temperature (Biolog plate: PM02A)	protein melting temperature (Biolog plate: PM01)	protein melting temperature (Biolog plate: PM03B)	protein melting temperature (Biolog plate: PM05)	protein melting temperature (Biolog plate: PM04A)
N[C@H]1CCOC1=O [L-Homoserine Lactone]	–	–	–	44.5	–
CN [Methylamine]	–	–	45.8	–	–
